Data reported in paper PMC11892870 (PLOS One, 2025).
Like-named read-outs stand apart in the source and are kept apart here.

Experiments:
DPPH radical scavenging = conditions: read-out: Antioxidant DPPH IC50
Procedure: (§1) The mixtures were kept in the dark for 30 minutes and then the absorbance was measured at 550 nm. In case of ABTS assay, ABTS radical cation (ABTS • + ) was prepared from a mixture of the ABTS stock solution (7 mM) and potassium persulfate (2.45 mM) in water. The mixture was then kept in the dark for 12-16 hours before use. Then, the ABTS • + solution was diluted in ethanol until the absorbance reached 0.70 ± 0.02 at […].
(§2) Trolox was used as a positive control in both assays, while a mixture of ethanol and DPPH or ABTS • + solution served as the negative control. The percentage inhibition of DPPH and ABTS radicals was calculated using the following equation:
(§3) DPPHandABTSinhibition%=A0−A1/A0×100
(§4) A0 is the absorbance of the control and A1 is the absorbance of the sample.

Aβ1-42 fibrils = target: T1, Aβ1-42 fibrils (Homo sapiens, UniProt P05067); test: biochemical; conditions: read-out: Aβ destabilization IC50
T1 construct: Aβ1-42 was firstly dissolved in HFIP
T1 sequence (P05067 672-713 limits assumed): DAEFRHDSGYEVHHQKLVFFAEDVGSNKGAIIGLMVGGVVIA
Source text: (§5) Then, the solvent was dried in hood using nitrogen, and reconstituted to working solution with 0.5 M phosphate buffer (pH 7.4).

Aβ1-42 = target: T2, Aβ1-42 (Homo sapiens, UniProt P05067); test: Inhibition of Aβ1-42 aggregation (fibril formation), ThT fluorescence; assay type: biochemical
T2 construct: Aβ1-42 was firstly dissolved in HFIP
T2 sequence (P05067 672-713 limits assumed): as above
Source text: as §5

AChE = AChE (Homo sapiens, UniProt P22303); test: biochemical
Chain of AChE (P22303 32-614): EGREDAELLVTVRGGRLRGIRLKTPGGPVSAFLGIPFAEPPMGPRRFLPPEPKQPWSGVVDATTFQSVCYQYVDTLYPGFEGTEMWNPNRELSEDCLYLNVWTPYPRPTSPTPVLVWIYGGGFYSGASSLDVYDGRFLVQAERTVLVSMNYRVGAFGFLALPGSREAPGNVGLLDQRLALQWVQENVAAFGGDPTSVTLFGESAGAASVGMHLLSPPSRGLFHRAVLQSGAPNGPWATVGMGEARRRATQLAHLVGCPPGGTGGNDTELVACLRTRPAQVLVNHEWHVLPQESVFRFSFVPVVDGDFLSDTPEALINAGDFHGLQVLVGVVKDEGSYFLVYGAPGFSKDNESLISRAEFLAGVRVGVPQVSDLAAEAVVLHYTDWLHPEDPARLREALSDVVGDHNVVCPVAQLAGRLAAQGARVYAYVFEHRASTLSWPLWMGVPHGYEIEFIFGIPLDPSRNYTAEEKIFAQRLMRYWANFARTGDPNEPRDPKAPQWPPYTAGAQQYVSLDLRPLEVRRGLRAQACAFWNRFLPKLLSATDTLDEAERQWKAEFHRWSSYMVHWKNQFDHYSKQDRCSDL

[1] = Cytotoxicity in differentiated SH-SY5Y cells, MTT; assay type: cell-based; conditions: human
Procedure: (§6) Neuroblastoma cells (SH-SY5Y) were maintained in humidified atmosphere at 37 °C with 5%CO2 in DMEM/F12 supplement with 10%FBS. Afterward, cells were treated for 6 days and replaced every 3 days with 1%FBS supplementation and 10 μM of retinoic acid. Cells were seeded (100,000 cells per well) in 96-well microplates and cultured for 48 hours before treatment. […] Cell viability was assessed using MTT assay. Absorbance at 570 nm was measured for both treated and untreated samples, with viability expressed as a percentage relative to the control.

BChE = BChE (Homo sapiens, UniProt P06276); test: biochemical; conditions: mean ± SD, n = 3; read-out: BChE inhibition IC50
Chain of BChE (P06276 29-602, species assumed): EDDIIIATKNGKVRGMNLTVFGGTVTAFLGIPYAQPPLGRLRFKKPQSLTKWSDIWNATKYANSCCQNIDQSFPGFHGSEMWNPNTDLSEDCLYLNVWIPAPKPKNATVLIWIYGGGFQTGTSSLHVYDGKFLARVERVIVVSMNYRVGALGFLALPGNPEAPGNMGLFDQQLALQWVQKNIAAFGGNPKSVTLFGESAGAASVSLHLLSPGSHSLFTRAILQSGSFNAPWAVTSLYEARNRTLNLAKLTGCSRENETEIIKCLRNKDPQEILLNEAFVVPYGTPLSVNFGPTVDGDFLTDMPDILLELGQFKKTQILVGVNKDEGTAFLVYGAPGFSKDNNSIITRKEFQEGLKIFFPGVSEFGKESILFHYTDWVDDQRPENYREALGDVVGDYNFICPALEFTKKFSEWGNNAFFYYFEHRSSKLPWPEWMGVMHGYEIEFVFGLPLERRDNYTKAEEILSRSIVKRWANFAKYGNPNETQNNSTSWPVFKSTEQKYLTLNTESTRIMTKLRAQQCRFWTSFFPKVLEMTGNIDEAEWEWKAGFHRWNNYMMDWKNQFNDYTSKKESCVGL

ABTS radical scavenging = conditions: read-out: Antioxidant ABTS IC50
Procedure: as §1, §2, §3, §4

SH-SY5Y cells = test: Cytotoxicity in differentiated SH-SY5Y cells, MTT; assay type: cell-based; conditions: 100 µM, SH-SY5Y, MTT, average of 5
Procedure: as §6

[2] = system: scopolamine-induced amnesic mice; test: Novel object recognition test, scopolamine-induced amnesia; assay type: in vivo
[3] = system: scopolamine-induced amnesic mice; test: Modified Y-maze test, scopolamine-induced amnesia; assay type: in vivo
male ICR mice = test: Locomotor activity and spontaneous alternation in Y-maze; assay type: in vivo; conditions: donepezil 3 mg/kg p.o., average of 7 mice
Procedure: Scopolamine was dissolved in NSS. Donepezil and crude extract were dissolved in corn oil. Animal doses were calculated according to mice body weight. […].
Sixty male ICR mice in age 6 weeks (34-44 g) were supplied from Northeast Laboratory Animal Center, KKU. Before conducting the experiments, they were acclimatized for a week with a 12h light-dark cycle and had free access to their diet and water. Their body weight was recorded every day. […] Investigators could not be blinded to the mouse groups due to the difference in code colors. However, the investigators who assessed the mouse’s behavior were blinded to the mouse code for providing unbiased data. The parameters related to behavioral changes were assessed including the number of arm entries, the exploration time spent, and the time spent in a preference quadrant.
Locomotor activity was investigated in a black polyvinyl chamber Y maze. The size of the chamber is 40 cm long, 3 cm wide at the bottom and 10 cm wide at the top, and 12 cm high in each arm. Mice were first allowed to acclimate the chamber and freely moved in Y maze for 8 minutes. After acclimatization, the locomotor activity was measured for 1 hour following the treatment administration. The number of arm entries was recorded from the middle of the maze.

[4] = system: scopolamine-induced amnesic mice; test: Morris water maze test, scopolamine-induced amnesia; assay type: in vivo
[5] = 0.1 µM, SH-SY5Y, MTT, average of 5, read-out: %Cell viability (cytotoxicity)
[6] = 1 µM, SH-SY5Y, MTT, average of 5, read-out: %Cell viability (cytotoxicity)
[7] = 10 µM, SH-SY5Y, MTT, average of 5, read-out: %Cell viability (cytotoxicity)
[8] = 100 µM, SH-SY5Y, MTT, average of 5, read-out: %Cell viability (cytotoxicity)
[9] = read-out: Inhibition of Aβ formation IC50
[10] = mean ± SD, n = 3, read-out: AChE inhibition IC50
[11] = differentiated SH-SY5Y neuroblastoma cells, 0.1 µM, SH-SY5Y, MTT, average of 5, read-out: %Cell viability (cytotoxicity)
[12] = differentiated SH-SY5Y neuroblastoma cells, 1 µM, SH-SY5Y, MTT, average of 5, read-out: %Cell viability (cytotoxicity)
[13] = differentiated SH-SY5Y neuroblastoma cells, 10 µM, SH-SY5Y, MTT, average of 5, read-out: %Cell viability (cytotoxicity)
[14] = differentiated SH-SY5Y neuroblastoma cells, 100 µM, SH-SY5Y, MTT, average of 5, read-out: %Cell viability (cytotoxicity)
[15] = long-term memory (24 h delay), donepezil 3 mg/kg p.o. + scopolamine 1 mg/kg i.p.
[16] = short-term memory, donepezil 3 mg/kg p.o. + scopolamine 1 mg/kg i.p.
[17] = long-term memory (24 h delay), scopolamine 1 mg/kg i.p. alone
[18] = short-term memory, scopolamine 1 mg/kg i.p. alone

## COc1ccc(-c2oc3cc(OC)cc(OC)c3c(=O)c2OC)cc1 [F5, 3,5,7,4′-tetramethoxyflavone]
DPPH radical scavenging
  IC50: > 100 µM
Aβ1-42 fibrils
  IC50: 51.3 ± 3.13 µM
Aβ1-42
  IC50: 134 ± 5.08 µM
AChE
  IC50: 209.1 ± 0.82 µM
[1]; [5]
  viability at 0.1 µM: 99.9%
[1]; [6]
  viability at 1 µM: 99.8%
[1]; [7]
  viability at 10 µM: 98.8%
[1]; [8]
  viability at 100 µM: 102%
BChE
  IC50: 164 ± 5.13 µM
ABTS radical scavenging
  IC50: > 100 µM

## COc1cc(OC)c2c(=O)cc(-c3ccccc3)oc2c1 [F1, 5,7-dimethoxyflavone]
DPPH radical scavenging
  IC50: > 100 µM
Aβ1-42 fibrils
  IC50: 75.9 ± 4.96 µM
Aβ1-42; [9]
  IC50: 105 ± 1.34 µM
AChE
  IC50: 181 ± 2.66 µM
[1]
  viability at 0.1 µM: 104%
  viability at 1 µM: 104%
  viability at 10 µM: 103%
  viability at 100 µM: 103%
BChE
  IC50: 92.19 ± 0.69 µM
ABTS radical scavenging
  IC50: > 100 µM

## COc1cc(OC)c2c(=O)c(OC)c(-c3ccccc3)oc2c1 [F2, 3,5,7-trimethoxyflavone]
DPPH radical scavenging
  IC50: > 100 µM
Aβ1-42 fibrils
  IC50: 83.9 ± 1.67 µM
Aβ1-42; [9]
  IC50: 87.1 ± 4.51 µM
AChE; [10]
  IC50: 237.1 ± 2.28 µM
[1]; [11]
  viability at 0.1 µM: 103%
[1]; [12]
  viability at 1 µM: 102%
[1]; [13]
  viability at 10 µM: 102%
[1]; [14]
  viability at 100 µM: 94%
SH-SY5Y cells
  %Cell viability (cytotoxicity): toxic
BChE
  IC50: 233 ± 6.89 µM
ABTS radical scavenging
  IC50: > 100 µM

## COc1cc2c(cc1OC)C(=O)C(CC1CCN(Cc3ccccc3)CC1)C2 (stereo not drawn) [Donepezil]
[2]; [15]
  Time spent exploring the familiar object: 32.11 s
  Time spent exploring the novel object: 56.84 s
[2]; [16]
  Time spent exploring the familiar object: 52.86 s
  Time spent exploring the novel object: 64.31 s
[3]; long-term memory (24 hours), donepezil 3 mg/kg p.o. + scopolamine 1 mg/kg i.p.
  %unfamiliar arm exploration: 39.94%
[3]; short-term memory (30 min), donepezil 3 mg/kg p.o. + scopolamine 1 mg/kg i.p.
  %unfamiliar arm exploration: 40.79%
Male ICR mice
  Locomotor activity, total number of arm entries: 23.57
[4]; acquisition phase Day 1, donepezil 3 mg/kg p.o. + scopolamine 1 mg/kg i.p.
  Time to find the platform, Escape latency: 59.86 s
[4]; acquisition phase Day 2, donepezil 3 mg/kg p.o. + scopolamine 1 mg/kg i.p.
  Time to find the platform, Escape latency: 49.00 s
[4]; acquisition phase Day 3, donepezil 3 mg/kg p.o. + scopolamine 1 mg/kg i.p.
  Time to find the platform, Escape latency: 37.04 s
[4]; acquisition phase Day 4, donepezil 3 mg/kg p.o. + scopolamine 1 mg/kg i.p.
  Time to find the platform, Escape latency: 27.71 s
[4]; acquisition phase Day 5, donepezil 3 mg/kg p.o. + scopolamine 1 mg/kg i.p.
  Time to find the platform, Escape latency: 25.57 s
[4]; probe test day 6, donepezil 3 mg/kg p.o. + scopolamine 1 mg/kg i.p.
  Time spent in the target quadrant: 18.39 s

## COc1cc(O)c2c(=O)c(OC)c(-c3ccccc3)oc2c1 [F4, 5-hydroxy-3,7-dimethoxyflavone]
DPPH radical scavenging
  IC50: > 100 µM
Aβ1-42 fibrils
  IC50: 63.9 ± 1.83 µM
Aβ1-42; [9]
  IC50: 97.1 ± 2.38 µM
AChE; [10]
  IC50: 217.6 ± 1.84 µM
[1]; [11]
  viability at 0.1 µM: 102%
[1]; [12]
  viability at 1 µM: 103%
[1]; [13]
  viability at 10 µM: 103%
[1]; [14]
  viability at 100 µM: 80.5%
SH-SY5Y cells
  %Cell viability (cytotoxicity): toxic
BChE
  IC50: 33.5 ± 2.97 µM
ABTS radical scavenging
  IC50: > 100 µM

## COc1ccc(-c2cc(=O)c3c(OC)cc(OC)cc3o2)cc1 [F3, 5,7,4′-trimethoxyflavone]
DPPH radical scavenging
  IC50: > 100 µM
Aβ1-42 fibrils
  IC50: 39.5 ± 0.61 µM
Aβ1-42; [9]
  IC50: 91.4 ± 4.67 µM
AChE
  IC50: 106 ± 1.14 µM
[1]; [5]
  viability at 0.1 µM: 101%
[1]; [6]
  viability at 1 µM: 102%
[1]; [7]
  viability at 10 µM: 102%
[1]; [8]
  viability at 100 µM: 95.5%
BChE
  IC50: 152 ± 6.14 µM
ABTS radical scavenging
  IC50: > 100 µM

## Cc1c(C)c2c(c(C)c1O)CCC(C)(C(=O)O)O2 (stereo not drawn) [Trolox, reference compound]
DPPH radical scavenging
  IC50: 24.6 ± 0.39 µM
ABTS radical scavenging
  IC50: 81.4 ± 4.67 µM

## CN1[C@@H]2C[C@@H](OC(=O)[C@H](CO)c3ccccc3)C[C@H]1[C@@H]1O[C@@H]12 [Scopolamine]
[2]; [17]
  Time spent exploring the familiar object: 43.83 s
  Time spent exploring the novel object: 27.21 s
[2]; [18]
  Time spent exploring the familiar object: 63.40 s
  Time spent exploring the novel object: 46.80 s
[3]; long-term memory (24 hours), scopolamine 1 mg/kg i.p. alone
  %unfamiliar arm exploration: 33.37%
[3]; short-term memory (30 min), scopolamine 1 mg/kg i.p. alone
  %unfamiliar arm exploration: 31.09%
[4]; acquisition phase Day 1, scopolamine 1 mg/kg i.p. alone
  Time to find the platform, Escape latency: 58.43 s
[4]; acquisition phase Day 2, scopolamine 1 mg/kg i.p. alone
  Time to find the platform, Escape latency: 54.46 s
[4]; acquisition phase Day 3, scopolamine 1 mg/kg i.p. alone
  Time to find the platform, Escape latency: 46.21 s
[4]; acquisition phase Day 4, scopolamine 1 mg/kg i.p. alone
  Time to find the platform, Escape latency: 39.64 s
[4]; acquisition phase Day 5, scopolamine 1 mg/kg i.p. alone
  Time to find the platform, Escape latency: 35.04 s
